# Molecular target: T1, recombinant human mPGES-1 (Homo sapiens, UniProt O14684)
# T1 construct: made in house; host or cells: Rosetta E. coli (microsomal/membrane fraction)
# T1 sequence (O14684 1-152): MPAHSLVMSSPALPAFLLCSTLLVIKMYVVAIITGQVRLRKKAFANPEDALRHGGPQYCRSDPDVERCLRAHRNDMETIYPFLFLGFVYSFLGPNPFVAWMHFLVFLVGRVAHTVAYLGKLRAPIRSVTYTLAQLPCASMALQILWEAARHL
# Experiment: mPGES-1 inhibition test (microsomes, PGH2 substrate, HTRF detection of PGE2)
# Format: biochemical
# Conditions: inhibition of mPGES-1 at 1 μM (marked in cell)
# How it was run: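 Microsomes from E. coli expressing recombinant human mPGES-1 in 0.1 M KPi pH 7.4 with 2.5 mM GSH were preincubated with inhibitor 25 min at room temperature. PGH2 was then added, and the reaction was stopped after 1 min with acidified FeCl2. PGE2 was quantified by HTRF (665/620 nm ratio) against a synthetic PGE2 standard curve.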
row,inhibition at 1 µM,Structure (SMILES)
1,99%,COc1cc2c(cc1C(=O)Nc1ccc(Br)cc1)nc(Nc1cccc(Cl)c1C(F)(F)F)n2C [Example 654]

# Same assay, conditions: inhibition of mPGES-1 at 10 μM
row,Structure (SMILES),inhibition at 10 µM
1,"Cn1c(Nc2c(Cl)cccc2Cl)nc2cc(C(=O)Nc3cccc(S(C)(=O)=O)c3)ccc21 [Example 248, 2-(2,6-Dichloro-phenylamino)-1-methyl-1H-benzimidazole-5-carboxylic acid (3-methanesulfonyl-phenyl)-amide]",73%
2,"Cn1c(Nc2c(Cl)cccc2Cl)nc2cc(C(=O)NC3CCC4(CC3)CC4)ccc21 [Example 483, 2-(2,6-Dichlorophenylamino)-1-methyl-N-(spiro[2.5]octan-6-yl)-1H-benzimidazole-5-carboxamide]",95%
3,"Cc1nc(NC(=O)c2ccc3[nH]c(Nc4c(Cl)cccc4Cl)nc3c2)cc2c1CCCC2 [Example 132, 2-(2,6-Dichloro-phenylamino)-1H-benzimidazole-5-carboxylic acid (1-methyl-5,6,7,8-tetrahydro-isoquinolin-3-yl)-amide]",97%
4,"Cn1c(Nc2c(Cl)cccc2Cl)nc2cc(C(=O)N[C@H]3CC[C@H](C(F)F)CC3)c(F)cc21 [Example 475, 2-(2,6-Dichlorophenylamino)-N-((1r,4r)-4-(difluoromethyl)cyclohexyl)-6-fluoro-1-methyl-1H-benzimidazole-5-carboxamide]",100%
5,"Cn1c(Nc2c(Cl)cccc2Cl)nc2cc(C(=O)NC3CCCCC3)c(F)cc21 [Example 159, 2-(2,6-Dichloro-phenylamino)-6-fluoro-1-methyl-1H-benzimidazole-5-carboxylic acid cyclohexylamide]",98%
6,"Cn1c(Nc2c(Cl)cccc2Cl)nc2cc(C(=O)NCc3ncccc3Cl)c(F)cc21 [Example 452, N-((3-Chloropyridin-2-yl)methyl)-2-(2,6-dichlorophenylamino)-6-fluoro-1-methyl-1H-benzimidazole-5-carboxamide]",93%
7,"COCCn1c(Nc2c(Cl)cccc2Cl)nc2cc(C(=O)NC3CCC(C)(C)CC3)ccc21 [Example 180, 2-(2,6-Dichloro-phenylamino)-1-(2-methoxy-ethyl)-1H-benzimidazole-5-carboxylic acid (4,4-dimethyl-cyclohexyl)-amide]",98%
8,"O=C(NC1COc2ccccc2C1)c1ccc2[nH]c(Nc3c(Cl)cccc3Cl)nc2c1 (centres unmarked) [Example 153, 2-(2,6-Dichloro-phenylamino)-1H-benzimidazole-5-carboxylic acid chroman-3-ylamide]",98%
9,"CC1(C)CCC(NC(=O)c2cc3nc(Nc4c(Cl)ccc(Cl)c4F)[nH]c3cc2F)CC1 [Example 596, 2-(3,6-Dichloro-2-fluoro-phenylamino)-N-(4,4-dimethyl-cyclohex-1-yl)-6-fluoro-1H-benzimidazole-5-carboxamide]",95%
10,"Cn1c(Nc2ccc(Cl)cc2C(F)(F)F)nc2cc(C(=O)Nc3ccc(Br)cc3)ccc21 [Example 433, N-(4-Bromophenyl)-2-(4-chloro-2-trifluoromethyl-phenylamino)-1-methyl-1H-benzimidazole-5-carboxamide]",99%
11,"O=C(NCC1CCCO1)c1ccc2[nH]c(Nc3c(Cl)cccc3Cl)nc2c1 (centres unmarked) [Example 234, 2-(2,6-Dichloro-phenylamino)-1H-benzimidazole-5-carboxylic acid (tetrahydro-furan-2-ylmethyl)-amide]",77%
12,"CC(=O)NCCn1c(Nc2c(Cl)cccc2Cl)nc2cc(C(=O)Nc3cc(Cl)ccn3)ccc21 [Example 278, 2-(2,6-Dichloro-phenylamino)-1-(2-acetylamino-ethyl)-1H-benzimidazole-5-carboxylic acid (4-chloro-pyridin-2-yl)-amide]",92%
13,"Cn1c(Nc2c(Cl)cccc2Cl)nc2cc(C(=O)Nc3cc(C#N)ccn3)ccc21 [Example 524, N-(4-Cyanopyridin-2-yl)-2-(2,6-dichlorophenylamino)-1-methyl-1H-benzimidazole-5-carboxamide]",98%

# Continued, values first:
row,inhibition at 10 µM,Structure (SMILES)
1,100%,"O=C(Nc1ccc(Br)cc1)c1cc2nc(Nc3c(Cl)cc(F)cc3Cl)[nH]c2cc1OCC(F)F [Example 586, 2-(2,6-Dichloro-4-fluoro-phenylamino)-N-(4-bromo-phenyl)-6-(2,2-difluoroethoxy)-1H-benzimidazole-5-carboxamide]"
2,90%,"CC(C)Oc1cc2[nH]c(Nc3c(Cl)ccc(Cl)c3F)nc2cc1C(=O)NC1CCCCC1 [Example 611, 2-(3,6-Dichloro-2-fluoro-phenylamino)-6-isopropoxy-N-cyclohexyl-1H-benzimidazole-5-carboxamide]"
3,93%,"O=C(Nc1ccc(Cl)c(F)c1)c1cc2nc(Nc3c(Cl)cccc3Cl)[nH]c2cc1Cl [Example 55, 2-(2,6-Dichloro-phenylamino)-6-chloro-1H-benzimidazol-5-carboxylic acid (4-chloro-3-fluoro-phenyl)-amide]"
4,99%,"O=C(Nc1ccc(Br)cc1)c1ccc2[nH]c(Nc3c(Cl)cc(Cl)cc3Cl)nc2c1 [Example 107, 2-(2,4,6-Trichloro-phenylamino)-1H-benzimidazole-5-carboxylic acid (4-bromo-phenyl)-amide]"
5,100%,"O=C(Nc1ccc(Br)cc1)c1ccc2[nH]c(Nc3cccc(Cl)c3Cl)nc2c1 [Example 108, 2-(2,3-Dichloro-phenylamino)-1H-benzimidazole-5-carboxylic acid (4-bromo-phenyl)-amide]"
6,95%,"O=C(Nc1cc(Cl)ccn1)c1ccc2[nH]c(Nc3c(Cl)cccc3Cl)nc2c1 [Example 75, 2-(2,6-Dichloro-phenylamino)-1H-benzimidazole-5-carboxylic acid (4-chloro-pyridin-2-yl)-amide]"
7,100%,"COc1cc2[nH]c(Nc3c(Cl)cc(F)cc3Cl)nc2cc1C(=O)N[C@H]1CC[C@H](C(F)(F)F)CC1 [Example 579, 2-(2,6-Dichloro-4-fluoro-phenylamino)-6-methoxy-N-(trans-4-trifluoromethyl-cyclohex-1-yl)-1H-benzimidazole-5-carboxamide]"
8,98%,"O=C(Nc1cc(Cl)nc(Cl)c1)c1ccc2[nH]c(Nc3c(Cl)cccc3Cl)nc2c1 [Example 187, 2-(2,6-Dichloro-phenylamino)-1H-benzimidazole-5-carboxylic acid (2,6-dichloro-pyridin-4-yl)-amide]"
9,96%,Cc1cc(NC(=O)c2cc3nc(Nc4c(Cl)cc(F)cc4Cl)[nH]c3cc2OCC(F)(F)F)nc(C(F)(F)F)c1 [compound 576]
10,100%,"O=C(Nc1cccc(Cl)c1)c1cc2nc(Nc3c(Cl)ccc(Cl)c3F)[nH]c2cc1F [Example 598, 2-(3,6-Dichloro-2-fluoro-phenylamino)-N-(3-chlorphenyl)-6-fluoro-1H-benzimidazole-5-carboxamide]"
11,95%,"O=C(N[C@H]1CC[C@H](C(F)(F)F)CC1)c1cc2nc(Nc3c(Cl)cc(F)cc3Cl)[nH]c2cc1OCC(F)(F)F [Example 583, 2-(2,6-Dichloro-4-fluoro-phenylamino)-N-(trans-4-trifluoromethyl-cyclohex-1-yl)-6-(2,2,2-trifluoroethoxy)-1H-benzimidazole-5-carboxamide]"
12,96%,"COc1ccnc(NC(=O)c2ccc3[nH]c(Nc4c(Cl)cccc4Cl)nc3c2)c1 [Example 188, 2-(2,6-Dichloro-phenylamino)-1H-benzimidazole-5-carboxylic acid (4-methoxy-pyridin-2-yl)-amide]"
